Experimental data as given in paper PMC2651632 (Biochemistry, 2008).

Target: T1, reconstituted ATase (ATN6-ATC3 complex) (Escherichia coli, UniProt P30870)
T1 sequence (P30870 1-608): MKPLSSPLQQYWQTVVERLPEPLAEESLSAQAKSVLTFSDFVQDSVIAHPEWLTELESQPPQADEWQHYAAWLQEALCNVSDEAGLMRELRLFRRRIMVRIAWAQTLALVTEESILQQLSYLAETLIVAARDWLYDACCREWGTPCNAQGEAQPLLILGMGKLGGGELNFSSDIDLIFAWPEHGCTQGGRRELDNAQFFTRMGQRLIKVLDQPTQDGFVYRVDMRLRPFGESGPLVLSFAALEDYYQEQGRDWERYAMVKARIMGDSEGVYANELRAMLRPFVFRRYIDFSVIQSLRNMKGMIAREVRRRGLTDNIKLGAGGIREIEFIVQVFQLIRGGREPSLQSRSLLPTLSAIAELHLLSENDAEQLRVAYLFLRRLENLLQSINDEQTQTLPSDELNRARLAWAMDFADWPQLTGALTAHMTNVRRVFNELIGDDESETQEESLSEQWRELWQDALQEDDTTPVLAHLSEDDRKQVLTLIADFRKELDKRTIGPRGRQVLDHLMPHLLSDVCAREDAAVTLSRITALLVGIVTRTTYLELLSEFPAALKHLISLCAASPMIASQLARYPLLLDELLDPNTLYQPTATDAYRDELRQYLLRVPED
T1 sequence (P30870 609-946 partner): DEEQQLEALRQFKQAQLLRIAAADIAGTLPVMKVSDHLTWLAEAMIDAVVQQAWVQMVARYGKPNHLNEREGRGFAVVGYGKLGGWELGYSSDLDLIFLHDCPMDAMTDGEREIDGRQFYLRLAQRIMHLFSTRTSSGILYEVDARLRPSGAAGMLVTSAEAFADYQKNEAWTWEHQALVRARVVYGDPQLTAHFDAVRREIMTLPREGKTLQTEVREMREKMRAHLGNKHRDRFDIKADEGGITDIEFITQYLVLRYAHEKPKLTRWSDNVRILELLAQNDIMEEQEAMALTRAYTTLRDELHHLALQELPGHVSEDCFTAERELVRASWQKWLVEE
Assay: initial rate of GS adenylylation, […] incorporation from [alpha-32P]ATP
Assay type: biochemical

## NC(=O)CC[C@H](N)C(=O)O [glutamine]
  EC50: ~7 mM
